Experimental data: US7306804B2 (priority 1998, dated 2007)
“Also recorded” adds a separate entry of the source. Read-outs that look alike come from different tables or passages of the source.

Columns and labels:
[1] = system: peptide-pulsed autologous EBV-transformed B cells (B-LCL); type: cell-based, human
[2] = system: HIV envelope protein gp160; conditions: cited from earlier work; for T-cell proliferative response to immunizing peptide and HIV Env protein gp160 / antibodies recognizing recombinant gp160: immunized mice; for T-cell proliferation responses: two F1 hybrid mouse strains (B6C3 F1 and A.SW×Balb/c F1)
PBMCs = conditions: cited from earlier work
[3] = system: PBMCs from control and HIV-1 infected chimpanzees; type: cell-based, chimpanzee
[4] = system: PBMCs from normal and HIV-positive individuals; type: cell-based, human; conditions: for number of HIV+ individuals with positive proliferative responses: 17 HIV+ individuals tested
[5] = system: anti-peptide antibodies in serum; type: binding, chimpanzee; set-up: key: +, Positive (Titer > 1:100); −, Negative (Titer < 1:100)
[6] = system: anti-peptide antibodies in serum; type: binding, human; set-up: key to Anti-peptide antibody response: +, Positive (titer above control); −, Negative (titer below control)

FLGFLGAAGSTMGAASLTLTVQARQ [Peptide 63]
% Specific lysis at various E:T ratios 12.5:1 [1]: 0%
% Specific lysis at various E:T ratios 25:1 [1]: 7.9%
% Specific lysis at various E:T ratios 50:1 [1]: 8.8%
% Specific lysis at various E:T ratios 100:1 [1]: 17.6%
CTL activity against peptide-pulsed autologous B-LCLs [1]: significant CTL activity
specific lysis of peptide-pulsed target cells [1]: also observed
T-cell proliferative response to immunizing peptide and HIV Env protein gp160 [2]: induced a T-cell response against both the immunizing peptide and the HIV Env protein; also recorded: induced proliferative responses to both the immunizing peptide
antibodies recognizing recombinant gp160 [2]: did not produce antibodies that could recognize recombinant gp160
T-cell proliferation responses [2]: relatively good T-cell proliferation responses
proliferative response of PBMCs (PBMCs; monkey, in vivo): good response

GTGPCTNVSTVQC [Peptide 116]
T-cell proliferation responses [2]: relatively good T-cell proliferation responses
proliferative response of PBMCs (PBMCs; monkey, in vivo): weak responses

LWDQSLKPCVKLT [Peptide 111]
T-cell proliferation responses [2]: relatively good T-cell proliferation responses
proliferative response of PBMCs (PBMCs; three monkeys immunized with peptide cocktail): good response

SVITQACSKVSFE [Peptide 113]
% Specific lysis at various E:T ratios 12.5:1 [1]: 0%
% Specific lysis at various E:T ratios 25:1 [1]: 0%
% Specific lysis at various E:T ratios 50:1 [1]: 0%
% Specific lysis at various E:T ratios 100:1 [1]: 0%
CTL activity against peptide-pulsed autologous B-LCLs [1]: did not serve as a CTL epitope
T-cell proliferative response ([3]; chimpanzee 40, control normal): − (−, Negative (SI < 2.0))
T-cell proliferative response ([3]; chimpanzee 62, HIV-infected): + (+, Positive (Stimulation Index [SI] > 2.0))
T-cell proliferative response ([3]; chimpanzee 69, HIV-infected): + (+, Positive (Stimulation Index [SI] > 2.0))
T-cell proliferative response ([3]; chimpanzee 73, control normal): − (−, Negative (SI < 2.0))
T-cell proliferative response ([3]; chimpanzee 80, HIV-infected): + (+, Positive (Stimulation Index [SI] > 2.0))
T-cell proliferative response ([3]; chimpanzee 99, HIV-infected): − (−, Negative (SI < 2.0))
T-cell proliferative response ([3]; chimpanzee 100, HIV-infected): + (+, Positive (Stimulation Index [SI] > 2.0))
T-cell proliferative response ([3]; chimpanzee 139, HIV-infected): − (−, Negative (SI < 2.0))
T-cell proliferative response ([3]; chimpanzee 175, HIV-infected): + (+, Positive (Stimulation Index [SI] > 2.0))
T-cell proliferative response ([3]; chimpanzee 247, HIV-infected): − (−, Negative (SI < 2.0))
T-cell proliferative response ([3]; chimpanzee 310, HIV-infected): − (−, Negative (SI < 2.0))
number of HIV-infected chimpanzees with positive proliferative responses (SI>2.0) ([3]; nine HIV-infected chimpanzees tested): five
number of HIV+ individuals with positive proliferative responses [4]: five
T-cell proliferative response ([4]; HIV-positive patient MSf): − (−, Negative (SI < 2.0))
T-cell proliferative response ([4]; HIV-positive patient MSm): − (−, Negative (SI < 2.0))
T-cell proliferative response ([4]; HIV-positive patient eight): − (−, Negative (SI < 2.0))
T-cell proliferative response ([4]; HIV-positive patient eleven): − (−, Negative (SI < 2.0))
T-cell proliferative response ([4]; HIV-positive patient fifteen): + (+, Positive (Stimulation Index [SI] > 2.0))
T-cell proliferative response ([4]; HIV-positive patient five): − (−, Negative (SI < 2.0))
T-cell proliferative response ([4]; HIV-positive patient four): − (−, Negative (SI < 2.0))
T-cell proliferative response ([4]; HIV-positive patient fourteen): + (+, Positive (Stimulation Index [SI] > 2.0))
T-cell proliferative response ([4]; HIV-positive patient nine): − (−, Negative (SI < 2.0))
T-cell proliferative response ([4]; HIV-positive patient one): − (−, Negative (SI < 2.0))
T-cell proliferative response ([4]; HIV-positive patient seven): + (+, Positive (Stimulation Index [SI] > 2.0))
T-cell proliferative response ([4]; HIV-positive patient six): + (+, Positive (Stimulation Index [SI] > 2.0))
T-cell proliferative response ([4]; HIV-positive patient ten): − (−, Negative (SI < 2.0))
T-cell proliferative response ([4]; HIV-positive patient thirteen): + (+, Positive (Stimulation Index [SI] > 2.0))
T-cell proliferative response ([4]; HIV-positive patient three): − (−, Negative (SI < 2.0))
T-cell proliferative response ([4]; HIV-positive patient twelve): − (−, Negative (SI < 2.0))
T-cell proliferative response ([4]; HIV-positive patient two): − (−, Negative (SI < 2.0))
T-cell proliferative response ([4]; Normal-1 (HIV-seronegative)): − (−, Negative (SI < 2.0))
T-cell proliferative response ([4]; Normal-2 (HIV-seronegative)): − (−, Negative (SI < 2.0))
Anti-peptide antibody response [5]: −
Anti-peptide antibody response [6]: + and −
number of HIV+ individuals with positive antibody titers (<1:1280) [6]: one
T-cell proliferative response to immunizing peptide and HIV Env protein gp160 [2]: induced a T-cell response against both the immunizing peptide and the HIV Env protein; also recorded: induced proliferative responses to both the immunizing peptide
antibodies recognizing recombinant gp160 [2]: did not produce antibodies that could recognize recombinant gp160
T-cell proliferation responses [2]: relatively good T-cell proliferation responses
proliferative response of PBMCs (PBMCs; monkey, in vivo): weak responses

YLRDQQLLGIWG [Peptide 120]
T-cell proliferative response ([3]; chimpanzee 40, control normal): − (−, Negative (SI < 2.0))
T-cell proliferative response ([3]; chimpanzee 62, HIV-infected): + (+, Positive (Stimulation Index [SI] > 2.0))
T-cell proliferative response ([3]; chimpanzee 69, HIV-infected): + (+, Positive (Stimulation Index [SI] > 2.0))
T-cell proliferative response ([3]; chimpanzee 73, control normal): − (−, Negative (SI < 2.0))
T-cell proliferative response ([3]; chimpanzee 80, HIV-infected): + (+, Positive (Stimulation Index [SI] > 2.0))
T-cell proliferative response ([3]; chimpanzee 99, HIV-infected): − (−, Negative (SI < 2.0))
T-cell proliferative response ([3]; chimpanzee 100, HIV-infected): + (+, Positive (Stimulation Index [SI] > 2.0))
T-cell proliferative response ([3]; chimpanzee 139, HIV-infected): − (−, Negative (SI < 2.0))
T-cell proliferative response ([3]; chimpanzee 175, HIV-infected): − (−, Negative (SI < 2.0))
T-cell proliferative response ([3]; chimpanzee 247, HIV-infected): − (−, Negative (SI < 2.0))
T-cell proliferative response ([3]; chimpanzee 310, HIV-infected): − (−, Negative (SI < 2.0))
number of HIV+ individuals with positive proliferative responses [4]: five
T-cell proliferative response ([4]; HIV-positive patient MSf): − (−, Negative (SI < 2.0))
T-cell proliferative response ([4]; HIV-positive patient MSm): − (−, Negative (SI < 2.0))
T-cell proliferative response ([4]; HIV-positive patient eight): − (−, Negative (SI < 2.0))
T-cell proliferative response ([4]; HIV-positive patient eleven): + (+, Positive (Stimulation Index [SI] > 2.0))
T-cell proliferative response ([4]; HIV-positive patient fifteen): + (+, Positive (Stimulation Index [SI] > 2.0))
T-cell proliferative response ([4]; HIV-positive patient five): − (−, Negative (SI < 2.0))
T-cell proliferative response ([4]; HIV-positive patient four): − (−, Negative (SI < 2.0))
T-cell proliferative response ([4]; HIV-positive patient fourteen): − (−, Negative (SI < 2.0))
T-cell proliferative response ([4]; HIV-positive patient nine): + (+, Positive (Stimulation Index [SI] > 2.0))
T-cell proliferative response ([4]; HIV-positive patient one): − (−, Negative (SI < 2.0))
T-cell proliferative response ([4]; HIV-positive patient seven): + (+, Positive (Stimulation Index [SI] > 2.0))
T-cell proliferative response ([4]; HIV-positive patient six): + (+, Positive (Stimulation Index [SI] > 2.0))
T-cell proliferative response ([4]; HIV-positive patient ten): − (−, Negative (SI < 2.0))
T-cell proliferative response ([4]; HIV-positive patient thirteen): − (−, Negative (SI < 2.0))
T-cell proliferative response ([4]; HIV-positive patient three): − (−, Negative (SI < 2.0))
T-cell proliferative response ([4]; HIV-positive patient twelve): − (−, Negative (SI < 2.0))
T-cell proliferative response ([4]; HIV-positive patient two): − (−, Negative (SI < 2.0))
T-cell proliferative response ([4]; Normal-1 (HIV-seronegative)): − (−, Negative (SI < 2.0))
T-cell proliferative response ([4]; Normal-2 (HIV-seronegative)): − (−, Negative (SI < 2.0))
Anti-peptide antibody response [5]: −
Anti-peptide antibody response [6]: − and +
number of HIV+ individuals with positive antibody titers (<1:1280) [6]: two

YLRDQQLLGIWGC [Peptide 61]
% Specific lysis at various E:T ratios 12.5:1 [1]: 4.0%
% Specific lysis at various E:T ratios 25:1 [1]: 4.0%
% Specific lysis at various E:T ratios 50:1 [1]: 14.5%
% Specific lysis at various E:T ratios 100:1 [1]: 15.0%
CTL activity against peptide-pulsed autologous B-LCLs [1]: significant CTL activity
specific lysis of peptide-pulsed target cells [1]: also observed
T-cell proliferative response to immunizing peptide and HIV Env protein gp160 [2]: induced a T-cell response against both the immunizing peptide and the HIV Env protein
antibodies recognizing recombinant gp160 [2]: did not produce antibodies that could recognize recombinant gp160
T-cell proliferation responses [2]: relatively good T-cell proliferation responses
proliferative response of PBMCs (PBMCs; monkey, in vivo): PMBCs from two of the monkeys showed good proliferative responses
